# Assay results reported in paper PMC12501607, “Novel prolyl endopeptidase inhibitor from Myricaria germanica alleviates steatohepatitis” (RSC Advances, 2025).
# Assays:
# [1] = molecular target: T1, Prolyl endopeptidase (PREP) (Homo sapiens, UniProt P48147); assay: Chromogenic enzyme assay (Z-Gly-Pro-pNA, […] nm) with recombinant human PREP; Lineweaver-Burk kinetics; format: biochemical
# T1 sequence (P48147 1-710): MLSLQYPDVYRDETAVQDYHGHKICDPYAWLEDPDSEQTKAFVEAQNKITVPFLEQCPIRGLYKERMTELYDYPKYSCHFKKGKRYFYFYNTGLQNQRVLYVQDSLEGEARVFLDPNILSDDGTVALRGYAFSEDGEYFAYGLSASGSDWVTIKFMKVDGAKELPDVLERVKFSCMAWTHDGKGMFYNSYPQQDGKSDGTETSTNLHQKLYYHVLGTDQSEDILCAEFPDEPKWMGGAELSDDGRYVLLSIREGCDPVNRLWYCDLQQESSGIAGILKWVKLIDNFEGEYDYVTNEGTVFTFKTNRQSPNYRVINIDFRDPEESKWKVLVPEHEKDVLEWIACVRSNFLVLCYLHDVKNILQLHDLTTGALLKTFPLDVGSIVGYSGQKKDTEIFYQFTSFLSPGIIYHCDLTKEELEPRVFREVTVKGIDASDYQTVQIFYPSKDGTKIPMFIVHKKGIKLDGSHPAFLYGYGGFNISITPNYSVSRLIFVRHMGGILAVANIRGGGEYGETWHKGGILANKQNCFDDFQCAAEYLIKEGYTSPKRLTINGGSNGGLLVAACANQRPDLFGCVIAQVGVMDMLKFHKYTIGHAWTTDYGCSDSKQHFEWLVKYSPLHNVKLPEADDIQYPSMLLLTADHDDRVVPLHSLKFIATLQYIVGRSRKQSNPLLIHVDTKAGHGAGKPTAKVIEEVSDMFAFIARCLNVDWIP
# [2] = molecular target: T1, Prolyl endopeptidase (PREP); assay: Chromogenic enzyme assay (Z-Gly-Pro-pNA, […] nm) with recombinant human PREP; format: biochemical
compound,measurement,setting,value
"CCCCCCCCCCCCCCCCCCCCCCCCCC1CCCCC1O (racemic) [PREPi, (±)-2-pentacosylcyclohexanol]",IC50,[1],20 ± 1.6 µM
"COc1cc(C(=O)O)cc(OC)c1O [Fr-2, syringic acid]",IC50,[2],155 ± 1.8 µM
